Measurements taken from patent US10428106B2, “Phosphate replacement mRNA cap analogs” (ModernaTX, Inc., priority 2015, dated 2019).

Experiments:
[1] = biological target: T1, eIF4E (Homo sapiens, UniProt P06730); experiment: Binding affinities to eIF4E using surface plasmon resonance (SPR)
T1 construct: HNAVIpeptTEVeIF4E 32-217(Biotinylated)
Protocol: General Outline of the Assay Procedure
A sensor chip SA (GE Healthcare) is docked into a Biacore 3000 instrument.
Compound concentration series are injected over the immobilized protein serially in increasing concentration. Interaction models are fitted globally to the experimental traces, enabling determination of Kd or KD (binding affinity; unit: M) and possibly kon (on-rate, calculated from the association phase; unit: M^−1s^−1) and koff (off-rate, calculated from the dissociation phase; unit: s^−1).
Preparation of Sensor Chip
A sensor chip (SAD5001 or SA) was docked into a Biacore 3000 instrument, washed with 50 mM NaOH, 1M NaCl. Protein eIF4E was diluted in running buffer (50 mM HEPES, 150 mM KCl, 10 mM MgCl2, 2 mM TCEP) to ˜1 μM. The diluted protein solution was injected for 300-600 seconds. Typical capture levels were 5000-6000 RU.
Test compounds were solubilized in ddH2O or DMSO to 10 mM. 100 μM stocks were prepared by 100-fold dilution in running buffer (50 mM HEPES, 150 mM KCl, 10 mM MgCl2). Assay was run with or without 1% DMSO.
Data were analyzed in GeneData. Curve fit was accepted or rejected by looking at the resulting sensorgrams and steady state fits.
Assay has been validated using running buffer with and without DMSO.

[2] = system: human primary hepatocytes; experiment: Cell-based expression assay in human primary hepatocytes; conditions: normalized expression level of mRNA carrying the cap, 5-methoxy uridine; Compound 7 mRNA Cap0-like, others Cap1-like
[3] = system: CD-1 mice; experiment: In vivo expression assay of hEPO mRNA in MC3-based LNP; conditions: i.v. bolus 0.05 mg/kg, 6 h after injection, mRNA carrying the cap, 5-methoxy uridine
Protocol: mRNAs encoding hEPO are synthesized according to the method described in Example 2 above, co-transcriptionally incorporating cap analogs of the disclosure. […] A MC3-based lipid nanoparticle (LNP) formulation of the synthesized mRNA is produced, and is intravenously administered to CD-1 mice (n=3) at a bolus dose of 0.05 mg/kg. The level of hEPO was tested at 6 h, 24 h, or 48 h after injection.

[4] = system: HeLa Lysate; experiment: Cell free translation assay of hEPO mRNAs carrying different caps; assay type: biochemical; conditions: hEPO levels after 3 hours; mRNA carrying the cap; modRNA with 5-methoxy uridine
[5] = system: HeLa Lysate; experiment: Cap competition assay in kinetic cell free in vitro translation (free cap analogs vs Cap1-tipped eGFP modRNA); assay type: biochemical; conditions: free cap analog 0-100 uM; modRNA with 1-methyl-pseudouridine and 5-methyl cytidine; fluorescence plateau
Protocol: The in vitro translation assay was conducted with the HeLa 1-step coupled IVT kit (ThermoFisher Scientific, Waltham, Mass.) according to the manufacturer's instructions to assess performance of new cap analogs as free compounds or as an integral part of capped mRNA. Cap analogs with affinity to eIF4E protein may reduce protein synthesis rate in cell-free translation. Further, RNAs containing such cap analogs (“Cap-modRNA”) show different potency of protein synthesis in cell-free translation.
The modified RNAs (“modRNAs”) of eGFP and mCitrine-degron, harboring chemical modifications on either the CAP structures, selected ribose units and/or the bases, were diluted in sterile nuclease-free water to a final amount of 500 ng in 5 uL. […] The in vitro translation reaction was done in a standard 96-well round bottom plate (Corning, Corning, N.Y.), covered with an self-adhesive fluorescence-compatible seal (BioRad, Hercules, Calif.) at 30° C. inside the plate reader Cytation 3 (BioTek, Winooski, Vt.).
The fluorescent signal per reaction increased over time and is considered proportional to the occurring protein synthesis. Each cell-free translation reaction was monitored for 120-180 min with the following settings: eGFP protein—ex. […] The height of the reading head was set to 1 mm above the plate and a reading speed of one per sample every 17 seconds. […]

[6] = residence time as listed in Table 5

T1 sequence (P06730 32-217): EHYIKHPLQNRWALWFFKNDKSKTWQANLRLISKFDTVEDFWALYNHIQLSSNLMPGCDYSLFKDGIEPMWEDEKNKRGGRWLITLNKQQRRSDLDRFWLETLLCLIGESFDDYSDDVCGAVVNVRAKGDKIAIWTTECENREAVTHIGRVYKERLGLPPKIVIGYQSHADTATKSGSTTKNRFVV

Row | Structure (SMILES) | Kd ([1]; SPR, Biacore 3000, captured biotinylated eIF4E, Table 3) [µM] | τ [1, 6] [s] | h-primHeps norm to Capping and Cap1 [2] | in vivo hEPO normalized to capping and Cap1 [3] | CFT (norm to conc. & capping & cap1) [4] | τ ([1]; residence time, inverse of koff, Table 3) [s] | IC50 [5] [µM]
1 | C[n+]1cn([C@@H]2O[C@H](COP(=O)([O-])OCCN(CCOP(=O)([O-])OC[C@H]3O[C@@H](n4c[n+](C)c5c(=O)[nH]c(N)nc54)[C@H](O)[C@@H]3O)C(=O)OC(C)(C)C)[C@@H](O)[C@H]2O)c2nc(N)[nH]c(=O)c21 [Compound 25] | 300 |  |  |  |  |  | 
2 | CO[C@@H]1[C@H](O)[C@@H](COP(=O)(O)OP(=O)(O)OP(=O)(O)OC[C@H]2O[C@@H]([n+]3cn(C)c4c(=O)[nH]c(N)nc43)[C@H](O)[C@@H]2O)O[C@H]1n1cnc2c(=O)[nH]c(N)nc21 [Cap1, m7GpppG(2′-Om)] |  | 1.3 | 1.00 | 1.00 | 1.00 |  | 
3 | CO[C@H]1[C@@H](O)[C@H](n2c[n+](C)c3c(=O)[nH]c(N)nc32)O[C@@H]1COP(=O)(O)OP(=O)(O)OP(=O)(O)OC[C@H]1O[C@@H](n2cnc3c(=O)[nH]c(N)nc32)[C@H](O)[C@@H]1O [ARCA] |  | 0.6 | 1.52 | 0.70 | 1.93 |  | 
4 | Cn1c[n+]([C@@H]2O[C@H](COP(=O)(O)OP(=O)([O-])OP(=O)(O)OC[C@H]3O[C@@H](n4cnc5c(=O)[nH]c(N)nc54)[C@H](O)[C@@H]3O)[C@@H](O)[C@H]2O)c2nc(N)[nH]c(=O)c21 [Cap0 (i.e., m7GpppG), m7GpppG] |  |  |  |  |  | 1.25 | 36
